According to patent publication US9040691B2, “Hydroxymethylaryl-substituted pyrrolotriazines as ALK1 inhibitors” (BAYER INTELLECTUAL PROPERTY GMBH, priority 2011, dated 2015):

Legend:
[1] = test system: laser-induced choroidal neovascularisation; assay: Topical efficacy in the laser-induced choroidal neovascularization (CNV) model; assay type: in vivo, rat; details: Brown-Norway rats, eye drops 10 μl of 20 mg/ml twice daily; for vascular leakage [HRA score]: angiography day 21, score 0-3; for choroidal neovascularisation lesion size: day 23
Experimental: B-4. Topical Efficacy in the Laser-Induced Choroidal Neovascularization (CNV) Model
For this purpose, 65 pigmented Brown-Norway rats with no visible sign of ocular defects were selected and randomly assigned to six different groups (for n-numbers, see table below). On day 0, the animals were anaesthetized by an intraperitoneal injection (15 mg/kg xylazine and 80 mg/kg ketamine). After instillation of one drop of 0.5% tropicamide to dilate the pupils, choroidal neovascularisation was induced by burning six holes into the retina (disruption of Bruch's membrane) of one eye per animal using a 532 nm argon laser (lesion size: 50 μm; laser intensity: 150 mW; stimulus duration: 100 ms). Test compounds and vehicle controls were topically administered twice daily by instilling respective eye drops into the affected eye. The test compounds were dosed as follows: 10 μl of an eye drop formulation containing 20 mg/ml of the respective test compound suspended either in 100% liquid paraffin or in an aqueous vehicle (HPMC 15 cP 3.5%, polysorbate 80 0.5%, NaCl 0.9% in water) were applied to the affected eye twice daily at a 10 to 14 hour interval during the complete observation period of 23 days. Control animals received the respective vehicle (100% liquid paraffin or aqueous vehicle) topically twice daily. The body weight of all animals was recorded before the start and once daily during the study.
An angiography was performed on day 21 using a fluorescence fundus camera (Kowe). Here, after anaesthesia and pupillary dilation, 10% sodium fluorescein dye was injected subcutaneously, and images were recorded 2 and 10 min after dye injection. The vascular leakage of the fluorescein on the angiograms was evaluated by three different examiners who were blinded for group allocation (test compound versus vehicle), and scored with 0 (no leakage) to 3 (strongly stained).
On day 23, animals were sacrificed, and eyes were harvested and fixed in 4% paraformaldehyde solution for 1 hour at room temperature. After washing, the retina was carefully peeled, washed, blocked and stained with a FITC-isolectine B4 antibody in order to visualize the vasculature. Then, the sclera-choroids were flat-mounted and examined under a fluorescence microscope (Keyence Biozero) at 488 nm excitation wavelength. The area (in μm^2) of choroidal neovascularization was measured using ImageTool software.

ALK1 kinase = ALK1 kinase (Homo sapiens (Human), UniProt P37023); assay: ALK1 kinase assay (ProQinase protocol); assay type: biochemical; details: ProQinase radiometric assay, casein, γ-33P-ATP
Experimental: B-1b. ALK1 Kinase Assay (ProQinase Protocol)
ALK1 (Invitrogen, Carlsbad, Calif., USA) kinase activity was measured at ProQinase GmbH (Freiburg, Germany) in a radiometric assay using γ-^33P-ATP and casein (Sigma, St. Louis, Mo., USA) as substrate in 96-well PerkinElmer FlashPlates™ (Boston, Mass., USA). The compounds were tested at 10 concentrations in the range of 1×10^−4 M to 3×10^−9 M in a total volume of 50 μl with a final DMSO concentration of 1% each. The assay components were mixed in the order: • 20 μl assay buffer (70 mM HEPES-NaOH, pH 7.5, 3 mM MgCl2, 3 mM MnCl2, 2 μM sodium orthovanadate, 1.2 mM DTT); • 5 μl γ-^33P-ATP (1.0 μM in water, approx. 6×10^5 cpm per well); • 5 μl test compound solution (in 10% DMSO); • […] (200 μg/ml, 1.0 μg/50 μl final concentration)/enzyme (4 μg/ml, 20 ng/50 μl=5.5 nM final concentration) solution (1:1 mixture).
The reaction mixtures were incubated at 30° C. for 60 minutes and stopped by adding 50 μl 2% (v/v) phosphoric acid. The plates were aspirated and washed twice with 200 μl 0.9% (w/v) sodium chloride. Incorporation of ^33Pi was determined with a microplate scintillation counter (Microbeta, Wallac). All assays were performed using a BecicmanCoulter/SAGIAN™ Core System.
Median values obtained from unspecific substrate binding of labelled. ATP were set as background level, while median values measured in the absence of any inhibitor were considered to reflect full activity of ALK1 kinase. The background activity (ba) was subtracted from the full activity (fa) value as well as from the values obtained from the test compound containing samples (test compound activity, tea). The residual activity in the latter was calculated as follows: residual activity (%)=100×[(tca−ba)/(fa−ba)]
The residual activities for each concentration and the compound IC50 values were calculated using Quattro Workflow V3.1.0 (Quattro Research GmbH, Munich, Germany). The fitting model for the IC50 determinations was “Sigmoidal response (variable slope)” with parameters “top” fixed at 100% and “bottom” at 0%. The fitting method used was a least-squares fit.

[2] = test system: laser-induced choroidal neovascularisation; assay: Systemic efficacy in the laser-induced choroidal neovascularization (CNV) model; assay type: in vivo, rat; details: Brown-Norway rats, i.p. once daily 50 mg/kg days 0-1 then 20 mg/kg
Experimental: B-3. Systemic Efficacy in the Laser-Induced Choroidal Neovascularization (CNV) Model
For this purpose, 16 pigmented Brown-Norway rats with no visible sign of ocular defects were selected and randomly divided into two groups of eight animals each. On day 0, the animals were anaesthetized by an intraperitoneal injection (15 mg/kg xylazine and 80 mg/kg ketamine). After instillation of one drop of 0.5% tropicamide to dilate the pupils, choroidal neovascularisation was induced by executing six 75 μm-sized choroidal burns around the optic disc of the right eyes using a 532 nm argon laser photocoagulation at 150 mW for 100 ms. […] The body weight of all animals was recorded before the start and once daily during the study.
An angiography was performed on day 21 using Heidelberg's Retinal Angiograph (HRA). After anaesthesia and pupillary dilation, 10% sodium fluorescein dye was injected subcutaneously, and images were recorded 10 min after dye injection. The vascular leakage of the fluorescein on the angiograms was evaluated by two examiners in a masked fashion and scored with 0 (no leakage) to 3 (strongly stained).
After euthanasia on day 23, the eyes were harvested and fixed in 4% paraformaldehyde solution for 1 hour at room temperature. […] The flat-mounted preparations were examined under a fluorescence microscope (Apotom) at 488 nm excitation wavelength. […]

Sequence of ALK1 kinase (P37023 22-503): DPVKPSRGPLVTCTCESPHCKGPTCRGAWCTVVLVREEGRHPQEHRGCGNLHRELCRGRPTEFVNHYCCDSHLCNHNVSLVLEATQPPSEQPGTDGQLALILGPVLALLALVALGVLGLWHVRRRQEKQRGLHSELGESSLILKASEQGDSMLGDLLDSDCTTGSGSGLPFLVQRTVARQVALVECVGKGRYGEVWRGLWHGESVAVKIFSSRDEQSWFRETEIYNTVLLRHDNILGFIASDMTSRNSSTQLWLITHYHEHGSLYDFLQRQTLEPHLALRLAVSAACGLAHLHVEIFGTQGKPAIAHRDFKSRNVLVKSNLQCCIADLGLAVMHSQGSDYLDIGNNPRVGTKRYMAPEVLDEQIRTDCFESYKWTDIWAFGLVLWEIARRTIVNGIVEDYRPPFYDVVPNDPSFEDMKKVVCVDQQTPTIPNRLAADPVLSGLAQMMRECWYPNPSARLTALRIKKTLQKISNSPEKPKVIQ

In the case of `Nc1ncnn2c1c(-c1cc(F)c(CO)c(F)c1)cc2[C@H]1CC[C@H](O)CC1` [Example 7, trans-4-[4-Amino-5-[3,5-difluoro-4-(hydroxymethyl)phenyl]pyrrolo[2,1-f][1,2,4]triazin-7-yl]-cyclohexanol], the “vascular leakage [HRA score]” value ([1]; aqueous vehicle) is reported as 1.49 ± 0.24 HRA score, the “choroidal neovascularisation lesion size” value ([1]; aqueous vehicle) is reported as 6.14 ± 1.60 μm^2 × 10 000 and the “vascular leakage [HRA score]” value ([1]; paraffin vehicle) is reported as 1.52 ± 0.21 HRA score. For the same molecule, the “choroidal neovascularisation lesion size” value ([1]; paraffin vehicle) was 6.21 ± 0.99 μm^2 × 10 000 and the IC50 (ALK1 kinase) was 6.7 nM.

For `Nc1ncnn2c([C@@H]3CCCNC3)cc(-c3cc(F)c(CO)c(F)c3)c12` [Example 11, (4-{4-Amino-7-[(3R)-piperidin-3-yl]pyrrolo[2,1-f][1,2,4]triazin-5-yl}-2,6-difluorophenyl)methanol], the “vascular leakage [angiography score]” value ([2]; angiography day 21, score 0-3) was 0.68 ± 0.35 angiography score, the “choroidal neovascularisation lesion volume” value ([2]; day 23) was 3.48 ± 0.40 μm^3 × 100 000 and the “vascular leakage [HRA score]” value ([1]; aqueous vehicle) was 1.66 ± 0.29 HRA score. For the same molecule, the “choroidal neovascularisation lesion size” value ([1]; aqueous vehicle) was 5.50 ± 1.38 μm^2 × 10 000, the “vascular leakage [HRA score]” value ([1]; paraffin vehicle) was 1.41 ± 0.29 HRA score and the “choroidal neovascularisation lesion size” value ([1]; paraffin vehicle) was 6.45 ± 1.63 μm^2 × 10 000. For the same molecule, the IC50 (ALK1 kinase) was 3 nM.
